{"source": "patent US20120035320A1", "about": "“POLYACRIDINE NUCLEIC ACID DELIVERY PEPTIDE COMPLEXES” (University of Iowa Research Foundation, priority 2010, published 2012)", "key": {"[1]": {"molecular_target": "human DC-SIGN (Dendritic Cell-Specific Intracellular adhesion molecule-3 Grabbing Non-integrin) receptor, stably transfected in CHO cells (human) (UniProt Q9NNX6)", "sequence (Q9NNX6 whole entry)": "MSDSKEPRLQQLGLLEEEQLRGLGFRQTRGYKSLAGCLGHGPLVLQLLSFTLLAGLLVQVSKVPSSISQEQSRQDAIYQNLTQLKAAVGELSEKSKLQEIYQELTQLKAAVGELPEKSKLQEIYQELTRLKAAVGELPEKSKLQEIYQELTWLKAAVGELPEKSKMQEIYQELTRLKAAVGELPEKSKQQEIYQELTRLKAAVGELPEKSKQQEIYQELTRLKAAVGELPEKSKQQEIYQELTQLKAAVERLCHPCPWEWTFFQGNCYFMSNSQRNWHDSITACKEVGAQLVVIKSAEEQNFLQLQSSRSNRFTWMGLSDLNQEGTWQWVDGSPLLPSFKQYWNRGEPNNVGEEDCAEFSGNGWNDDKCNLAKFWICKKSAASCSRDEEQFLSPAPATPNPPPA", "experiment": "FACS of DC-SIGN CHO (+) and (-) cells after 24 hr with Cy5-DNA glycopeptide polyplex"}, "[2]": {"molecular_target": "human DC-SIGN (Dendritic Cell-Specific Intracellular adhesion molecule-3 Grabbing Non-integrin) receptor, stably transfected in CHO cells (human) (UniProt Q9NNX6)", "experiment": "FACS of DC-SIGN CHO (+) and (-) cells after 24 hr at 37 C with Cy5-DNA glycopeptide polyplex"}, "[3]": {"molecular_target": "human DC-SIGN (Dendritic Cell-Specific Intracellular adhesion molecule-3 Grabbing Non-integrin) receptor, stably transfected in CHO cells (human) (UniProt Q9NNX6)", "experiment": "cell-based or functional assay"}, "DNA": {"test_system": "DNA", "experiment": "DNA band shift and thiazole orange displacement assays of cysteine-flanked acridinylated peptides", "type": "binding", "protocol": "CKacrKKacrC (SEQ ID NO: 103), CKacrRKacrC (SEQ ID NO: 104), CKacrLKacrC (SEQ ID NO: 105), and CKacrFKacrC (SEQ ID NO: 106) (where Kacr is a lysine modified with acridine at the ε-amine) (FIG. 33, Formula VII) were synthesized by SPPS and purified while monitoring the absorbance of acridine at 409 nm. Monomers were evaluated for DNA affinity by DNA band shift and thiazole orange displacement assays. DNA complexes with monomers were also evaluated for particle size and ζ-potential. […] Buffered incubations of monomer at pH 8.0 were used to encourage polymerization of peptides and poly-CKacrKKacrC (SEQ ID NO: 103) and poly-CKacrRKacrC (SEQ ID NO: 104) have been isolated."}, "pGL3 [4]": {"test_system": "pGL3", "experiment": "thiazole orange displacement assay of Man 9 glycopeptide", "type": "binding", "conditions": "pGL3 1 μg, 40 nM thiazole orange", "protocol": "A control sample of pGL3 (1 μg) was combined with 40 nM thiazole orange in a total volume of 500 μl of 5 mM Hepes buffer pH 7.4. The Man 9 glycopeptide (0.2, 0.3, 0.4, 1 and 2 nmol) or Cys-(Acr-Lys)4 peptide (SEQ ID NO: 23) was added to pGL3 (1 μg) samples containing thiazole orange, and incubated for 30 min, followed by measuring the fluorescence intensity at excitation 500 nm and emission 530 nm (Wadhwa, M. S., Collard, W. T., Adami, R. C., McKenzie, D. L., and Rice, K. G. (1997) Peptide-mediated gene delivery: influence of peptide structure on gene expression. Bioconjugate Chemistry 8, 81-8). The percent fluorescence intensity relative to control was plotted versus the stoichiometry of glycopeptide or peptide added to DNA to determine the equivalence point."}, "[5]": {"test_system": "DC-SIGN (+) and (−) CHO cells", "experiment": "Cy5-DNA glycopeptide polyplex uptake by FACS", "type": "cell-based, human", "conditions": "24 hr 37° C.", "protocol": "pGL3 plasmid (5 μg) was labeled with Label IT according to the manufacturer's instructions to prepare Cy5-DNA. The Man 9 glycopeptide (0.5 nmol) was combined with 1 μg Cy5-DNA in 60 μl of water and incubated for 30 min to form a polyplex. DC-SIGN (+) and (−) CHO cells (1×10^6) (Granelli-Pipemo, A., Pritsker, A., Pack, M., Shimeliovich, I., Arrighi, J. F., Park, C. G., Trumpfheller, C., Piguet, V., Moran, T. M., and Steinman, R. M. (2005) Dendritic Cell Specific Intercellular Adhesion Molecule 3-Grabbing Nonintegrin/CD209 Is Abundant on Macrophages in the Normal Human Lymph Node and Is Not Required for Dendritic Cell Stimulation of the Mixed Leukocyte Reaction. J Immunology 7, 4260-4273) were each plated in triplicate in 35 mm wells and grown in DMEM supplemented with 7% FBS and 1% nonessential amino acids for 24 hrs. CHO (+) and (−) cells were transfected for 24 hrs with 1 μg of Cy5-DNA polyplex. The CHO cells were lifted by treatment with 5 ml of 1 mM EDTA in PBS and concentrated by centrifugation by 2,000×g, before diluting to a final volume of 1 ml in PBS. The transfected CHO (+) and (−) cells were analyzed by FACS on a Becton Dickson LSRII with excitation 488 nm and emission 575 nm, and compared to untransfected CHO cells."}, "pGL3 [6]": {"test_system": "pGL3", "experiment": "Man 9 glycopeptide DNA band shift assay", "type": "binding", "conditions": "agarose gel", "protocol": "pGL3 (1 μg) was combined with 0.05, 0.2, 0.5, and 1 nmol of Man 9 glycopeptide. Each sample was incubated for 30 min before loading onto an agarose gel, that was electrophoresed at 80 V for 60 min (Adami, R. C., Collard, W. T., Gupta, S. A., Kwok, K. Y., Bonadio, J., and Rice, K. G. (1998) Stability of Peptide-Condensed Plasmid DNA Formulations. Journal of Pharmaceutical Sciences 87, 678-683). The gel was stained with 0.1 mg per ml of ethidium bromide at 4° C. for 24 hrs, then photographed while illuminating on a transilluminator."}, "[7]": {"experiment": "QELS particle size and zeta potential of polyacridine-melittin polyplexes", "type": "physicochemical", "conditions": "mean particle size of peptide-DNA polyplex, 0.5 nmol of peptide per μg of DNA", "protocol": "Particle size and zeta potential were determined by preparing 2 ml of polyplex in 5 mM Hepes pH 7.5 at a DNA concentration of 30 μg/ml with 15 nmols/ml of peptide (0.5 nmol of peptide per μg of DNA). Particle size was measured by quasi-elastic light scattering (QELS) at a scatter angle of 90° on a Brookhaven ZetaPlus particle sizer (Brookhaven Instruments Corporation, NY). The zeta potential was determined as the mean of ten measurements immediately following acquisition of the particle size."}, "Erythrocytes": {"test_system": "Erythrocytes", "experiment": "RBC hemolysis assay", "type": "cell-based, mice", "protocol": "Whole blood was obtained from male ICR mice by heart puncture with heparinized 22 G needles and collected in conical tubes containing 10 ml of 0.15 M PBS (pH 7.4) prewarmed to 37° C. Erythrocytes were immediately separated from plasma by centrifugation at 2000 rpm for 2 min, washed three times with 10 ml of PBS, and then diluted to 1.5×10^8 cells/ml. Peptides were prepared at 15 μM and serially diluted to 10-0.01 μM, after which 100 μl was pipetted in triplicate into a MultiScreenHTS BV 96 well plate. Erythrocytes (50 μl, 7.5×10^6 cells) were added to the peptides and incubated at 37° C. for 1 h followed by filtration on a Multiscreen vacuum manifold (Millipore Corporation, Billerica, Mass.). The filtrate was measured for Abs410nm on a Biotech plate reader (Biotech Instruments Incorporated., Winooski, Vt.) and compared to the 100% hemolysis caused by replacing PBS with water. Peptide DNA polyplexes (1.5 nmols and 7.5 μg pGL3) were also assayed for hemolysis as described above."}, "[8]": {"test_system": "HepG2, 3T3, and CHO cells", "experiment": "in vitro gene transfer (luciferase) in three cell lines", "type": "cell-based", "conditions": "all three cell lines; 0.5 nmol per μg of pGL3", "protocol": "HepG2 cells (5×10^5) were plated on 6×35 mm wells and grown to approximately 50% confluency. Transfections were performed in MEM supplemented with 2% FBS, sodium pyruvate (1 mM), and penicillin and streptomycin (100 U and 100 μg/mL). Polyplexes were prepared at a DNA concentration of 30 μg/ml and a stoichiometry of 0.5 nmol peptide per μg of DNA in Hepes buffered mannitol (HBM). Polyplexes (10 μg of DNA in 0.3 ml of HBM) were added drop wise to wells in triplicate. After 24 hrs, the cells were washed twice with 2 ml of ice-cold phosphate-buffered saline (Ca^2+- and Mg^2+-free) and then treated with 0.5 ml of lysis buffer (25 mM Tris Chloride, pH 7.8, 1 mM EDTA, 8 mM magnesium chloride, and 1% Triton X-100) for 10 min at 4° C. Cell lysates were scraped, transferred to 1.5 mL microcentrifuge tubes, and centrifuged for 10 min at 13,000 g at 4° C. to pellet cell debris. Lysis buffer (300 μL), sodium-ATP (4.3 μL of a 165 mM solution at pH 7, 4° C.) were combined in a test tube, mixed briefly, and immediately placed in the luminometer. Luciferase relative light units were measured by a Lumat LB 9501 (Berthold Systems, Germany) with 10 s integration after automatic injection of 100 μL of 0.5 mM D-luciferin. […] Protein concentrations were measured by a BCA assay using bovine serum albumin as a standard. […]"}}, "note": "“And” between values parts separate entries of the source, which are not always exact repeats. Equal entries are not always repeated. Where two headings read alike, the source gives them in different places. No end group written: not given here. Acr = acridine on the lysine ε-amine"}
{"compound": "Man 9 glycopeptide (Man9GlcNAc2-Asn-Tyr-propionate maleimide conjugated to Cys-(Acr-Lys)4)", "values": [{"measurement": "fold fluorescence intensity, CHO (+) over CHO (-) cells", "setting": "[1]", "result": 10, "unit": "fold"}, {"measurement": "fold fluorescence intensity (cell uptake), CHO (+) over CHO (-) cells", "setting": "[2]", "result": "10 to 50", "unit": "fold"}, {"measurement": "in vitro gene transfer (luciferase expression) in CHO (+) versus CHO (-) cells", "setting": "[3]", "result": 100, "unit": "fold"}]}
{"compound": "poly-CKacrKKacrC: disulfide polymer of CKacrKKacrC formed by buffered incubation at pH 8.0 (CK(Acr)KK(Acr)C; also: disulfide polymer formed at pH 8.0)", "values": [{"measurement": "affinity for DNA", "setting": "DNA", "result": "greater affinity of the polymer for DNA than the monomer"}]}
{"compound": "Man 9 glycopeptide: high mannose N-glycan Man 9 Mal (Tyr, propionate maleimide) conjugated to Cys-(Acr-Lys)4", "values": [{"measurement": "thiazole orange displacement, asymptote / equivalence point for polyplex formation", "setting": "pGL3 [4]", "result": "0.4 nmol per μg of DNA"}, {"measurement": "cell uptake (fluorescence intensity), CHO (+) over CHO (−) cells", "setting": "[5]", "result": "10-50 fold and ~10 fold"}, {"measurement": "stoichiometry at which the band shift was complete", "setting": "pGL3 [6]", "result": "≥ 0.4 nmol of glycopeptide per μg of DNA"}]}
{"compound": "CKacrKKacrC: cysteine-flanked acridinylated peptide, Kacr = lysine modified with acridine at the ε-amine; SEQ ID NO: 103 (CK(Acr)KK(Acr)C; cysteine pairing not given here)", "values": [{"measurement": "affinity for DNA", "setting": "DNA", "result": "higher affinity for DNA"}]}
{"compound": "CC[C@H](C)[C@H](NC(=O)CNC(=O)[C@H](CCCCN)NC(=O)[C@H](CCCCN)NC(=O)[C@H](Cc1c[nH]c2ccccc12)NC(=O)[C@@H](N)CSSC[C@H](NC(=O)[C@H](CCCNC(=N)N)NC(=O)[C@H](CCCCNC(C)=O)NC(=O)[C@H](CCCNC(=N)N)NC(=O)[C@H](CCCCNC(C)=O)NC(=O)[C@H](CCCNC(=N)N)NC(=O)[C@H](CCCCNC(C)=O)NC(=O)[C@H](CCCNC(=N)N)NC(=O)[C@H](CCCCNC(C)=O)NC(=O)[C@@H](N)Cc1c[nH]c2ccccc12)C(=O)O)C(=O)NCC(=O)N[C@@H](C)C(=O)N[C@H](C(=O)N[C@@H](CC(C)C)C(=O)N[C@@H](CCCCN)C(=O)N[C@H](C(=O)N[C@@H](CC(C)C)C(=O)N[C@H](C(=O)N[C@H](C(=O)NCC(=O)N[C@@H](CC(C)C)C(=O)N1CCC[C@H]1C(=O)N[C@@H](C)C(=O)N[C@@H](CC(C)C)C(=O)N[C@H](C(=O)N[C@@H](CO)C(=O)N[C@@H](CC(C)C)C(=O)N[C@H](C(=O)N[C@@H](CCCCN)C(=O)N[C@@H](CCCNC(=N)N)C(=O)N[C@@H](CCCCN)C(=O)N[C@@H](CCCNC(=N)N)C(=O)N[C@@H](CCC(N)=O)C(=O)N[C@@H](CCC(N)=O)C(=O)O)[C@@H](C)CC)[C@@H](C)CC)[C@@H](C)O)[C@@H](C)O)C(C)C)C(C)C", "note": "[poly(Lys(Ac)-Arg)4-SS-melittin]", "values": [{"measurement": "Particle Size (nm)", "setting": "[7]", "result": 177, "unit": "nm"}, {"measurement": "EC50", "setting": "Erythrocytes; RBC hemolysis at pH 5.0, second value of the cell (pH 7.4:5.0), read-out: HL50 (μM) pH 5.0", "result": 7.7, "unit": "µM"}, {"measurement": "EC50", "setting": "Erythrocytes; RBC hemolysis at pH 7.4, first value of the cell (pH 7.4:5.0), read-out: HL50 (μM) pH 7.4", "result": 5.6, "unit": "µM"}, {"measurement": "gene transfer, fold less active than poly(Acr-Arg)4-SS-melittin", "setting": "[8]", "result": "100-1000 fold"}]}
{"compound": "CKacrRKacrC: cysteine-flanked acridinylated peptide, SEQ ID NO: 104 (CK(Acr)RK(Acr)C; cysteine pairing not given here)", "values": [{"measurement": "affinity for DNA", "setting": "DNA", "result": "higher affinity for DNA"}]}
